Data published in patent US8623407B2, “Gabapentin-containing solid compositions and process for preparing the same” (Pfizer Inc., priority 1998, dated 2014).

What was measured:
Type in all cases: physicochemical
[1] = Dehydration reaction (lactam formation) when maintained in a dried state at 105° C.; conditions: 105° C. over 2-3 hours
Experimental: To the contrary, in γ-aminobutyric acid derivatives having no or a less bulky substituent at the 3-position thereof, such as γ-aminobutyric acid or 4-amino-3-hydroxy-butanoic acid, the dehydration reaction is not brought about even when maintained in a dried state such as at a temperature of 105° C. over 2-3 hours, and the formation of 4-cyclohexylpyrrolidone (the corresponding lactam form) is not observed. In other words, in the 4-amino-3-substituted-butanoic acid derivative wherein the substituent at the 3-position thereof has a bulky structure, the dehydration reaction could easily be brought about between the amino group and the carboxyl group within the molecule.

[2] = Storage stability of baclofen samples: dehydrated condensates content by HPLC; conditions: based on baclofen
Experimental: The baclofen powder samples G and H obtained as described above and untreated baclofen crystals were stored under the conditions as defined in the following Table 8 and then a content of dehydrated condensates formed in each of the samples was determined by means of HPLC. In this Example, the content of the dehydrated condensates is expressed in terms of % by weight, based on baclofen.

[3] = Storage stability of pregabalin samples: dehydrated condensate content by HPLC; conditions: Table 9, based on pregabalin
Experimental: The samples I, J and K obtained as described above and untreated pregabalin crystals were stored under the conditions as defined in the following Table 9 and then a content of the dehydrated condensate formed in each of the samples was determined by means of HPLC. In the present Example and the following Example 6, a content of the dehydrated condensate is expressed in terms of % by weight, based on pregabalin.
The samples L and M obtained as described above were stored under the conditions as defined in the following Table 10 and then a content of the dehydrated condensate formed in each of the samples was determined by means of HPLC.

NCC(O)CC(=O)O (stereo not drawn) [4-amino-3-hydroxy-butanoic acid]
formation of 4-cyclohexylpyrrolidone (the corresponding lactam form) [1]: not observed

NCC(CC(=O)O)c1ccc(Cl)cc1 (stereo not drawn) [Untreated Baclofen]
content of dehydrated condensates ([2]; 60° C./1 week (sealed)): 0.36 % by weight | content of dehydrated condensates ([2]; 60° C./2 weeks (sealed)): 0.57 % by weight | content of dehydrated condensates ([2]; 60° C./3 weeks (sealed)): 0.70 % by weight | content of dehydrated condensates ([2]; When Initiated): 0.10 % by weight

NCCCC(=O)O [γ-aminobutyric acid]
formation of 4-cyclohexylpyrrolidone (the corresponding lactam form) [1]: not observed

CC(C)CC(CN)CC(=O)O (stereo not drawn) [Untreated Pregabalin, 5-methyl-3-aminomethyl-hexanoic acid]
content of the dehydrated condensate ([3]; 60° C./1 week (sealed)): 0.001 % by weight | content of the dehydrated condensate ([3]; 60° C./2 weeks (sealed)): 0.001 % by weight | content of the dehydrated condensate ([3]; When initiated): <0.001 % by weight
